7 compounds from patent US20230390171A1, “DEODORANT COMPOSITIONS COMPRISING LIPOPHILIC CARBOXYLIC ACIDS” (The Procter & Gamble Company, priority 2022, published 2023) can be followed below.

Structures are written as SMILES. Values after ≈ are worked out from the molar mass of the structure shown. Like-named read-outs stand apart in the source and are kept apart here.

One assay concerns S. epidermidis. Put plainly: Finished Product Soleris Method (detection time, resistance to growth of bacteria). Type of assay: cell-based. The note with it: Table 3; 1.5% acid in clear gel, 1:10 dilution. Here is the method: The products shown in examples 1-14 in Table 2 were tested for their resistance to the growth of bacteria by the Finished Product Soleris Method in a 1:10 dilution with artificial eccrine, pH 6, non-stabilized as provided by Pickering Solutions.
The products shown in examples 15-30 in Table 5 were tested for their resistance to the growth of bacteria by the Finished Product Soleris Method in a 1:10 dilution with artificial eccrine, pH 6, non-stabilized as provided by Pickering Solutions.
The products shown in examples 31-34 in table 8 were tested for their resistance to the growth of bacteria by the Finished Product Soleris Method in a 1:10 dilution with artificial eccrine, pH 6, non-stabilized as provided by Pickering Solutions.
Sample preparation is done in the following manner. The product to be tested is weighed into a vial at a ratio of 1 part product to 10 parts Artificial Eccrine, custom pH 6, non-stabilized as obtained by Pickering Laboratories (cat. No. 1700-0023). In some cases where products have a higher hostility, the dilution in a particular study may be 1 part deodorant product to 100 parts Artificial Eccrine, custom pH 6, non-stabilized. Products are heated to 72° C. for 30 minutes to melt solid products and facilitate dispersion into the artificial eccrine. […] There may be some insoluble media present after dispersion. The dilutions remainder of the procedure is described below in “Analyzing via Soleris”.
• S. epidermidis grown overnight on tryptic soy agar (37 C) • Colony from agar is suspended in 25 ml tryptic soy broth in baffled flask, and incubated overnight on shaking platform (37 C) • 1 ml of overnight culture is diluted into 9 ml of sterile H2O (this serves as the inoculum for experimental formulas) • For testing liquid products, 5 ml of experimental formula transferred to 15 ml conical tube. For testing solid formulations, a 48 or 96-well tissue culture plates is used, with each well containing 100 ul of solidified formulations. Alternately, for solid formulations, collect […] and apply 10-20 g of water and let sit at least 1 hour. […]

A further assay concerns S. epi. The assay can be described thus: Minimum Inhibitory Concentration (MIC) of various carboxylic acids. Type of assay: cell-based. The note with it: for potential to inhibit bacteria at an acidic pH: Table 1. As to the method: The following MIC (Minimum Inhibitory Concentration) was done on various carboxylic acids. […] In this case, the MIC was tested in two different growth media. […] The MIC or minimum inhibitory concentration test determines antimicrobial activity of a material against a specific bacteria. The most commonly employed methods are the tube dilution method and agar dilution method. Test products that are not clear or precipitate the growth media are tested by agar dilution method which is similar to the tube dilution method except dilutions are plated on agar. The tube dilution test is the standard method for determining levels of microbial resistance to an antimicrobial agent. Serial dilutions of the test agent are made in a liquid microbial growth medium which is inoculated with a standardized number of organisms and incubated for a prescribed time. The lowest concentration (highest dilution) of test agent preventing appearance of turbidity (growth) is considered to be the minimal/minimum inhibitory concentration (MIC). At this dilution the test agent is bacteriostatic.

[1] abbreviates: growth media pH 4.2, read-out: MIC S. epi pH 4.2.
Setting [2] is: growth media pH 7.2, read-out: MIC S. epi pH 7.2.

By MIC is commonly meant the smallest concentration in the dilution series that meets the test's criterion for growth inhibition. For the compound `O=C(O)C(O)c1ccccc1` (stereo not shown) [Mandelic Acid], the “ability to prevent the growth of bacteria” value (from here on “ability”) in the assay on S. epidermidis is “strong ability to prevent the growth of bacteria”. Moreover, the “potential to inhibit bacteria at an acidic pH” value (“potential to inhibit bacteria” below) in the assay on S. epi was “greatest potential to inhibit bacteria at an acidic pH”. The values for the MIC with S. epi (setting [1]) and in the assay with S. epi (setting [2]) were 312 µg/mL (≈ 2050 µM) and greater than 2500 µg/mL, respectively.

As for `O=C(O)c1ccccc1O` [salicylic acid, reference compound], the “ability” value in the assay on S. epidermidis is “strong ability to prevent the growth of bacteria”.

With `O=C(O)c1ccc(O)c(O)c1` [Protocatechuic Acid], the MIC with S. epi (setting [1]) was 500 µg/mL (≈ 3240 µM); in the assay with S. epi (setting [2]), greater than 500 µg/mL.

With `O=c1cc(CO)occ1O` [Kojic Acid], the minimal inhibitory concentration (MIC) with S. epi (setting [1]) and in the assay on S. epi (setting [2]) was greater than 500 µg/mL each time.

On to `CCCCCCCC(=O)Oc1ccccc1C(=O)O` [Capryloyl Salicylic Acid], for which, in the assay on S. epi, the “potential to inhibit bacteria” value is given as “greatest potential to inhibit bacteria at an acidic pH”. For the same compound, the MIC was found to be 4 µg/mL (≈ 15.1 µM) with S. epi (setting [1]) and 125 µg/mL (≈ 473 µM) in the assay on S. epi (setting [2]).

With `O=C(O)CCCCCCCC(=O)O` [Azelaic Acid, reference compound], in the assay on S. epi, the “potential to inhibit bacteria” value was “greatest potential to inhibit bacteria at an acidic pH”. The MIC was 125 µg/mL (≈ 664 µM) with S. epi (setting [1]) and greater than 500 µg/mL with S. epi (setting [2]).

For the compound `CCCCCCCCC(O)C(=O)O` (stereo not shown) [Hydroxycapric Acid], the “ability” value with S. epidermidis is on record as “strong ability to prevent the growth of bacteria”. The “potential to inhibit bacteria” value with S. epi is given as “greatest potential to inhibit bacteria at an acidic pH”. Further, the “MIC S. epi pH 4.2” value in the assay with S. epi (growth media pH 4.2) was 15.6 ppm. In the assay on S. epi (growth media pH 7.2), the “MIC S. epi pH 7.2” value is given as greater than 2500 ppm.
